The values that follow come from patent publication US9944608B2, “Herbicidal pyridazinone derivatives” (Syngenta Participations AG, priority 2014, dated 2018).

Holding throughout (assay): B1 Post-emergence efficacy, glasshouse pot test
What all share (format): in vivo
Holding throughout (details): post-emergence application, 1000 g/ha, evaluated after 13 days

The test system of one assay is Solanum nigrum (SOLNI). How it is done: (§1) B1 Post-Emergence Efficacy Seeds of a variety of test species are sown in standard soil in pots:—Solanum nigrum (SOLNI), Amaranthus retoflexus (AMARE), Setaria faberi (SETFA), Alopecurus myosuroides (ALOMY), Echinochloa crus-galli (ECHCG), Ipomoea hederacea (IPOHE), Lolium perenne (LOLPE). After 8 days cultivation (post-emergence) under controlled conditions in a glasshouse (at 24/16° C., day/night; 14 hours light; 65% humidity), the plants are sprayed with an aqueous spray solution derived from the formulation of the technical active ingredient in acetone/water (50:50) solution containing 0.5% Tween 20 (polyoxyethelyene sorbitan monolaurate, CAS RN 9005-64-5). Compounds are applied at 1000 g/ha. The test plants are then grown in a glasshouse under controlled conditions in a glasshouse (at 24/16° C., day/night; 14 hours light; 65% humidity) and watered twice daily. After 13 days, the test is evaluated for the percentage damage caused to the plant. The biological activities are assessed on a five point scale (5=80-100%; 4=60-79%; 3=40-59%; 2=20-39%; 1=0-19%). A blank value in the table is indicative that the compound was not tested on that species.

Assay [1] relates to Echinochloa crus-galli (ECHCG). The protocol:
as §1

Assay [2] relates to Amaranthus retoflexus (AMARE). The protocol: as §1
In the next assay the test system is Lolium perenne (LOLPE). The protocol:
as §1

The test system of a further assay is Setaria faberi (SETFA). How it is done: as §1
For assay [3], the system named is Ipomoea hederacea (IPOHE). The protocol:
as §1

Take `Cn1nc(C2CC2)c(O)c(-c2c(C(F)(F)F)ccc(Cl)c2OCc2ccccc2)c1=O` [Compound 1.070]: the “SOLNI: percentage damage caused to the plant (five point scale)” value (“SOLNI: percentage damage caused” for short) with Solanum nigrum (SOLNI) is on record as 5 (5=80-100%). Besides, the “ECHCG: percentage damage caused to the plant (five point scale)” value (shortened to “ECHCG: percentage damage caused”) in assay [1] is given as 5 (5=80-100%). For the same compound, in assay [2], the “AMARE: percentage damage caused to the plant (five point scale)” value (“AMARE: percentage damage caused” below) is recorded as 5 (5=80-100%). In addition, the “LOLPE: percentage damage caused to the plant (five point scale)” value (from here on “LOLPE: percentage damage caused”) in the assay with Lolium perenne (LOLPE) is given as 5 (5=80-100%). The “SETFA: percentage damage caused to the plant (five point scale)” value (shortened to “SETFA: percentage damage caused”) in the assay with Setaria faberi (SETFA) is recorded as 5 (5=80-100%). In assay [3], the “IPOHE: percentage damage caused to the plant (five point scale)” value (“IPOHE: percentage damage caused” below) is listed as 5 (5=80-100%).

For `Cn1nc(C2CC2)c(O)c(-c2c(Cl)ccc(Cl)c2OCc2ccccc2)c1=O` [Compound 1.009], in the assay with Solanum nigrum (SOLNI), the “SOLNI: percentage damage caused” value is on record as 5 (5=80-100%). Also, in assay [1], the “ECHCG: percentage damage caused” value is given as 5 (5=80-100%). For the same compound, the “AMARE: percentage damage caused” value in assay [2] was 5 (5=80-100%). In the assay with Lolium perenne (LOLPE), the “LOLPE: percentage damage caused” value is listed as 5 (5=80-100%). The “SETFA: percentage damage caused” value in the assay with Setaria faberi (SETFA) is listed as 5 (5=80-100%). Further, the “IPOHE: percentage damage caused” value in assay [3] is given as 5 (5=80-100%).

Take `Cn1nc(S(C)(=O)=O)c(O)c(-c2c(Cl)ccc(Cl)c2OCc2ccccc2)c1=O` [Compound 1.082]: the “SOLNI: percentage damage caused” value in the assay with Solanum nigrum (SOLNI) is given as 5 (5=80-100%). Also, in assay [1], the “ECHCG: percentage damage caused” value is 1 (1=0-19%). For the same compound, in assay [2], the “AMARE: percentage damage caused” value is 1 (1=0-19%). Further, the “LOLPE: percentage damage caused” value in the assay with Lolium perenne (LOLPE) is recorded as 1 (1=0-19%). Besides, in the assay with Setaria faberi (SETFA), the “SETFA: percentage damage caused” value is 2 (2=20-39%). In assay [3], the “IPOHE: percentage damage caused” value is listed as 3 (3=40-59%).

As for `Cn1nc(C(F)(F)F)c(O)c(-c2c(C(F)(F)F)ccc(Cl)c2OCc2ccccc2)c1=O` [Compound 1.071], the “SOLNI: percentage damage caused” value in the assay with Solanum nigrum (SOLNI) is recorded as 5 (5=80-100%). Moreover, the “ECHCG: percentage damage caused” value in assay [1] is listed as 4 (4=60-79%). In assay [2], the “AMARE: percentage damage caused” value is 3 (3=40-59%). Further, the “LOLPE: percentage damage caused” value in the assay with Lolium perenne (LOLPE) is given as 3 (3=40-59%). In the assay on Setaria faberi (SETFA), the “SETFA: percentage damage caused” value was 5 (5=80-100%). Besides, the “IPOHE: percentage damage caused” value in assay [3] is 5 (5=80-100%).

On to `Cc1nn(C)c(=O)c(-c2c(Cl)cccc2OCc2ccccc2)c1O` [Compound 1.068], for which the “SOLNI: percentage damage caused” value with Solanum nigrum (SOLNI) is given as 5 (5=80-100%). The “ECHCG: percentage damage caused” value in assay [1] is recorded as 4 (4=60-79%). Besides, the “AMARE: percentage damage caused” value in assay [2] was 3 (3=40-59%). The “LOLPE: percentage damage caused” value in the assay with Lolium perenne (LOLPE) is 2 (2=20-39%). In the assay on Setaria faberi (SETFA), the “SETFA: percentage damage caused” value is given as 4 (4=60-79%). Also, the “IPOHE: percentage damage caused” value in assay [3] was 4 (4=60-79%).

Take `Cn1nc(N)c(O)c(-c2c(Cl)ccc(Cl)c2OCc2ccccc2)c1=O` [Compound 1.081]: the “SOLNI: percentage damage caused” value in the assay on Solanum nigrum (SOLNI) was 5 (5=80-100%). The “ECHCG: percentage damage caused” value in assay [1] is on record as 2 (2=20-39%). Also, the “AMARE: percentage damage caused” value in assay [2] was 3 (3=40-59%). The “LOLPE: percentage damage caused” value in the assay with Lolium perenne (LOLPE) is 2 (2=20-39%). In addition, the “SETFA: percentage damage caused” value in the assay with Setaria faberi (SETFA) is recorded as 4 (4=60-79%). Further, the “IPOHE: percentage damage caused” value in assay [3] is recorded as 4 (4=60-79%).

Take `Cc1nn(C)c(=O)c(-c2c(Cl)ccc(F)c2OCc2ccccc2)c1O` [Compound 1.014]: the “SOLNI: percentage damage caused” value in the assay with Solanum nigrum (SOLNI) is recorded as 5 (5=80-100%). For the same compound, the “ECHCG: percentage damage caused” value in assay [1] is reported as 4 (4=60-79%). Moreover, the “AMARE: percentage damage caused” value in assay [2] is recorded as 4 (4=60-79%). The “LOLPE: percentage damage caused” value with Lolium perenne (LOLPE) is given as 3 (3=40-59%). The “SETFA: percentage damage caused” value in the assay with Setaria faberi (SETFA) is 5 (5=80-100%). In addition, the “IPOHE: percentage damage caused” value in assay [3] was 5 (5=80-100%).

`Cc1nn(C)c(=O)c(-c2c(F)ccc(Cl)c2OCc2ccccc2)c1O` [Compound 1.004]: the “SOLNI: percentage damage caused” value in the assay with Solanum nigrum (SOLNI) is 5 (5=80-100%). Besides, the “ECHCG: percentage damage caused” value in assay [1] was 5 (5=80-100%). Moreover, in assay [2], the “AMARE: percentage damage caused” value is listed as 5 (5=80-100%). Moreover, the “LOLPE: percentage damage caused” value in the assay on Lolium perenne (LOLPE) is 5 (5=80-100%). Besides, the “SETFA: percentage damage caused” value with Setaria faberi (SETFA) is 5 (5=80-100%). Moreover, the “IPOHE: percentage damage caused” value in assay [3] was 5 (5=80-100%).
